{
  "source": "patent US12239727B2",
  "about": "“Compositions for use in the treatment of photosensitivity” (RepoCeuticals A/S, priority 2018, dated 2025)",
  "origin": "cited, not measured here",
  "details": "room temperature, solvent DMSO",
  "data": [
    {"smiles": "COc1ccc2[nH]cc(CCNC(C)=O)c2c1", "note": "[melatonin, N-acetyl-5-methoxytryptamine]", "values": [
      {"measurement": "solubility in DMSO", "value": "≥ 232", "unit": "g/L"}
    ]}
  ]
}
